Test results from PubChem BioAssay AID504473 (NMMLSC, 2011).
Active and inactive are the calls of the source.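 The calls were made as follows: active = GFP ratio to DMSO above 1.5 or below 0.66; inactive = the rest.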

Key:
Assay in all cases: TOR pathway GFP reporter clone modulation in yeast – S. cerevisiae, GFP-tagged clone panel, flow cytometry (AID 504473);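 also: median GFP fluorescence of the cells measured by high-throughput flow cytometry; test concentration not given here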
YDR070C = settings: S. cerevisiae GFP-tagged strains, 3 h
YEL060C = settings: S. cerevisiae GFP-tagged strains, 3 h
YKR093W = settings: S. cerevisiae GFP-tagged strains, 3 h
YIL066C = settings: S. cerevisiae GFP-tagged strains, 3 h
YGL036W = settings: S. cerevisiae GFP-tagged strains, 3 h
YBR248C = settings: S. cerevisiae GFP-tagged strains, 3 h
[1] = target: General amino acid permease AGP1 (Saccharomyces cerevisiae S288c) (UniProt P25376); settings: S. cerevisiae GFP-tagged strains, 3 h, YCL025C
YLR142W = settings: S. cerevisiae GFP-tagged strains, 3 h
YGL135W = settings: S. cerevisiae GFP-tagged strains, 3 h
YLR185W = settings: S. cerevisiae GFP-tagged strains, 3 h
YNL068C = settings: S. cerevisiae GFP-tagged strains, 3 h
YGR034W = settings: S. cerevisiae GFP-tagged strains, 3 h
YHL021C = settings: S. cerevisiae GFP-tagged strains, 3 h
YDL204W = settings: S. cerevisiae GFP-tagged strains, 3 h
YML026C = settings: S. cerevisiae GFP-tagged strains, 3 h
YER081W = settings: S. cerevisiae GFP-tagged strains, 3 h
YOR038C = settings: S. cerevisiae GFP-tagged strains, 3 h
YPR184W = settings: S. cerevisiae GFP-tagged strains, 3 h
YHR203C = settings: S. cerevisiae GFP-tagged strains, 3 h
YPL265W = settings: S. cerevisiae GFP-tagged strains, 3 h
YPR145W = settings: S. cerevisiae GFP-tagged strains, 3 h
YEL071W = settings: S. cerevisiae GFP-tagged strains, 3 h
YPL150W = settings: S. cerevisiae GFP-tagged strains, 3 h
YIL051C = settings: S. cerevisiae GFP-tagged strains, 3 h
YDL205C = settings: S. cerevisiae GFP-tagged strains, 3 h
YDR382W = settings: S. cerevisiae GFP-tagged strains, 3 h
YBR072W = settings: S. cerevisiae GFP-tagged strains, 3 h
YCL064C = settings: S. cerevisiae GFP-tagged strains, 3 h
YDR399W = settings: S. cerevisiae GFP-tagged strains, 3 h
YOR182C = settings: S. cerevisiae GFP-tagged strains, 3 h
YNL015W = settings: S. cerevisiae GFP-tagged strains, 3 h
YHR141C = settings: S. cerevisiae GFP-tagged strains, 3 h
YKL086W = settings: S. cerevisiae GFP-tagged strains, 3 h
YER156C = settings: S. cerevisiae GFP-tagged strains, 3 h
YER151C = settings: S. cerevisiae GFP-tagged strains, 3 h
YLL039C = settings: S. cerevisiae GFP-tagged strains, 3 h
YIL043C = settings: S. cerevisiae GFP-tagged strains, 3 h
YMR251W-A = settings: S. cerevisiae GFP-tagged strains, 3 h
YGR019W = settings: S. cerevisiae GFP-tagged strains, 3 h
YMR120C = settings: S. cerevisiae GFP-tagged strains, 3 h
YEL007W = settings: S. cerevisiae GFP-tagged strains, 3 h
YML034W = settings: S. cerevisiae GFP-tagged strains, 3 h
YDR453C = settings: S. cerevisiae GFP-tagged strains, 3 h
YPL220W = settings: S. cerevisiae GFP-tagged strains, 3 h
YOR136W = settings: S. cerevisiae GFP-tagged strains, 3 h
YLR367W = settings: S. cerevisiae GFP-tagged strains, 3 h
YJL056C = settings: S. cerevisiae GFP-tagged strains, 3 h
YKR039W = settings: S. cerevisiae GFP-tagged strains, 3 h

Chain of General amino acid permease AGP1 (Saccharomyces cerevisiae S288c) (P25376 whole entry, looked up): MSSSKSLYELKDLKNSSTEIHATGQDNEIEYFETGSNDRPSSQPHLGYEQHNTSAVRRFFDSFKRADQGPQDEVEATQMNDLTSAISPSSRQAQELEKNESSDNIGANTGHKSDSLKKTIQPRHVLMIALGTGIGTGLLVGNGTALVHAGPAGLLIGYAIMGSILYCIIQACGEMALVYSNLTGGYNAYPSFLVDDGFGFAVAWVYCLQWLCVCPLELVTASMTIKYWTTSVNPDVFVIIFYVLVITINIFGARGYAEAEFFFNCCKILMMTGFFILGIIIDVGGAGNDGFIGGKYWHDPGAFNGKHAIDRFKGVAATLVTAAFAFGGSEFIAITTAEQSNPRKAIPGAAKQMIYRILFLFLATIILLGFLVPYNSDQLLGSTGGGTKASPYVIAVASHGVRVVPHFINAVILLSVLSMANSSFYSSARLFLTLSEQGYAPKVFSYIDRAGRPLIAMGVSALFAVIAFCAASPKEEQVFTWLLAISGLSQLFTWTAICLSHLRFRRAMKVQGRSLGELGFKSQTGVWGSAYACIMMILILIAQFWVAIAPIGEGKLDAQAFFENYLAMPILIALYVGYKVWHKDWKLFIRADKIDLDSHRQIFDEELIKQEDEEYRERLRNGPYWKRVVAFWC

GFP ratio to DMSO [1]: 2.27
SMILES: CO[C@H]1C[C@@H]2CC[C@@H](C)[C@@](O)(O2)C(=O)C(=O)N2CCCC[C@H]2C(=O)O[C@H]([C@H](C)C[C@@H]2CC[C@@H](O)[C@H](OC)C2)CC(=O)[C@H](C)/C=C(\C)[C@@H](O)[C@@H](OC)C(=O)[C@H](C)C[C@H](C)/C=C/C=C/C=C/1C
GFP ratio to DMSO (YDR070C): 4.12 | GFP ratio to DMSO (YEL060C): 2.55 | GFP ratio to DMSO (YKR093W): 3.56 | GFP ratio to DMSO (YIL066C): 1.17 (inactive) | GFP ratio to DMSO (YGL036W): 0.919 (inactive) | GFP ratio to DMSO (YBR248C): 1.11 (inactive) | GFP ratio to DMSO (YLR142W): 1.41 (inactive) | GFP ratio to DMSO (YGL135W): 0.682 (inactive) | GFP ratio to DMSO (YLR185W): 0.705 (inactive) | GFP ratio to DMSO (YNL068C): 1.06 (inactive) | GFP ratio to DMSO (YGR034W): 0.689 (inactive) | GFP ratio to DMSO (YHL021C): 2.52 | GFP ratio to DMSO (YDL204W): 1.4 (inactive) | GFP ratio to DMSO (YML026C): 0.289 | GFP ratio to DMSO (YER081W): 1.08 (inactive) | GFP ratio to DMSO (YOR038C): 1.21 (inactive) | GFP ratio to DMSO (YPR184W): 2.01 | GFP ratio to DMSO (YHR203C): 0.685 (inactive) | GFP ratio to DMSO (YPL265W): 3.22 | GFP ratio to DMSO (YPR145W): 2.19 | GFP ratio to DMSO (YEL071W): 2.11 | GFP ratio to DMSO (YPL150W): 1.04 (inactive) | GFP ratio to DMSO (YIL051C): 1.4 (inactive) | GFP ratio to DMSO (YDL205C): 0.898 (inactive) | GFP ratio to DMSO (YDR382W): 0.783 (inactive) | GFP ratio to DMSO (YBR072W): 4.94 | GFP ratio to DMSO (YCL064C): 1.28 (inactive) | GFP ratio to DMSO (YDR399W): 0.946 (inactive) | GFP ratio to DMSO (YOR182C): 0.576 | GFP ratio to DMSO (YNL015W): 1.88 | GFP ratio to DMSO (YHR141C): 0.777 (inactive) | GFP ratio to DMSO (YKL086W): 1.49 (inactive) | GFP ratio to DMSO (YER156C): 1.05 (inactive) | GFP ratio to DMSO (YER151C): 1.03 (inactive) | GFP ratio to DMSO (YLL039C): 1.77 | GFP ratio to DMSO (YIL043C): 0.996 (inactive) | GFP ratio to DMSO (YMR251W-A): 1.96 | GFP ratio to DMSO (YGR019W): 1.93 | GFP ratio to DMSO (YMR120C): 0.612 | GFP ratio to DMSO (YEL007W): 1.05 (inactive) | GFP ratio to DMSO (YML034W): 1.04 (inactive) | GFP ratio to DMSO (YDR453C): 2.58 | GFP ratio to DMSO (YPL220W): 0.887 (inactive) | GFP ratio to DMSO (YOR136W): 1.51 | GFP ratio to DMSO (YLR367W): 0.635 | GFP ratio to DMSO (YJL056C): 0.954 (inactive) | GFP ratio to DMSO (YKR039W): 12.7
